SMILES strings stand for the structures. Read-outs that look alike come from different tables or passages of the source. Marks after values point to notes of the source that are not given here.

One data set addresses T1, human OT receptors (Homo sapiens, UniProt P30559).
T1 construct: expressed in transfected cells; host or cells: HEK-293 cells (stably transformed, G418 selection)
T1 sequence (P30559 1-389): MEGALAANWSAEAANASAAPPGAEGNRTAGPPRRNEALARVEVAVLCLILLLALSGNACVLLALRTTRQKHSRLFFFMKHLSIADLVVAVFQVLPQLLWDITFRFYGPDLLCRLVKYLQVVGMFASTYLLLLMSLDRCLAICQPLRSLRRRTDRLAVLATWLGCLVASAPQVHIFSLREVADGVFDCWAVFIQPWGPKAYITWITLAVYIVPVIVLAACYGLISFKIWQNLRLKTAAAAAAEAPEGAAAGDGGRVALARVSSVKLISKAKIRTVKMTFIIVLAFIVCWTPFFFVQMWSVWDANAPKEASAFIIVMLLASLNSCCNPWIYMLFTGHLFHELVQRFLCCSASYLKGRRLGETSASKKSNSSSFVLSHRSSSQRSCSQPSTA
In kind it is cell-based. As for the experimental part:
Plasmid constructs were described previously (Amina et al. 2010). Human embryonic kidney HEK‐293 cells were maintained in Dulbecco's Modified Eagle's Medium (DMEM) supplemented with 10% fetal bovine serum (FBS) and Geneticin G418 100 μg/mL at 37°C in a humidified atmosphere of 95% air and 5% CO2. Cells were grown in culture dishes to 80–90% confluence and transfected with the expression plasmid pcDNAHOXTR‐376R or pcDNA3(+) (Invitrogen, Carlsbad, CA) (MOCK‐transfected cells), using FuGENE HD Transfection Reagent (Roche, Basel, Switzerland) in accordance with the manufacturer's instructions.
We measured [Ca^2+]i using the fluorescent Ca^2+ indicator fura‐2‐acetoxymethyl ester (fura‐2/AM). Transfected HEK‐293 cells were loaded with fura‐2/AM to a final concentration of 1 μmol/L in complete medium and incubated at 37°C as reported previously (Ma et al. 2013). After 30‐min loading, the cells were washed three times with HEPES‐buffered saline (HBS) solution (145 mmol/L NaCl, 5 mmol/L KCl, 1 mmol/L MgCl2, 20 mmol/L HEPES‐NaOH, 2 mmol/L CaCl2, 20 mmol/L glucose, pH 7.4). The fluorescence of the cells loaded with fura‐2/AM was then measured at 37°C, at the determined sites, through a pinhole (10–20 μm in diameter). We used alternating excitation wavelengths of 340 and 380 nm in a Ca^2+ microspectrofluorometric system (IX‐73 Model; Olympus, Tokyo, Japan) and Metafluor software (Molecular Devices, Sunnyvale, CA), as described previously (Hashii et al. 2000). […] The ratio of fluorescence at 340 nm and 380 nm (F340/F380) was used to determine [Ca^2+]i. All data were normalized to the baseline fluorescence (F0) recorded 10 s before addition, and given as F/F0 where F – maximal ratio of fluorescence after drug's application.

For data set [1] the following is noted: male, ICR, mouse, in vivo, ip, 100 ng/kg.
Experimental: Thirty minutes or 24 h later, mice were anesthetized by an intraperitoneal injection of pentobarbital. Blood samples of 0.1 mL were collected by cardiac puncture in EDTA and aprotinin‐coated capillaries and centrifuged at 1600g for 15 min at 4°C. Plasma samples were collected and stored at –80°C until use.
(§1) Protein content was determined using a Bio‐Rad protein assay kit and bovine serum albumin assay standard (Bio‐Rad, Hercules, CA).
The conditions of data set [2]: male, ICR, mouse, in vivo, ip, 100 ng/kg, 0.5 h.
Experimental: Mouse CSF was obtained according the techniques described by Jin et al. (2007). […] Thirty minutes or 24 h later, the mice were anaesthetized with intraperitoneal injection of pentobarbital. The skin over the posterior neck was removed by two incisions, the first in the midline from the low cervical area to the anterior cranium and the second across the craniocervical junction. Subcutaneous tissue and nuchal muscles were exposed, sectioned along the rim of the occipital bone and then removed laterally unveiling the glistening clear arachnoid membrane overlying the cisterna magna. A micropipette was guided into the cisterna magna.
The micropipette was constructed by cutting a 30‐gauge needle with scissors to approximately 6–7 mm. The needle was then inserted 4–5 mm into the lumen of a 10 μL micropipette. CSF samples were obtained between 8.00 and 11.00 AM, and usually 5 μL of clear CSF was obtained.
as §1
Setting [3] is: drug responses at 10^−8 mol/L relative to OT as 100%, HEK‐293 cells expressing pcDNAHOXTR‐376R, mean ± SEM, n = 25.

Turning to `CCCCCCCCCCCCCCCC(=O)N[C@H]1CSSC[C@@H](C(=O)N2CCC[C@H]2C(=O)N[C@@H](CC(C)C)C(=O)NCC(N)=O)NC(=O)[C@H](CC(N)=O)NC(=O)[C@H](CCC(N)=O)NC(=O)[C@H]([C@@H](C)CC)NC(=O)[C@H](Cc2ccc(OC(=O)CCCCCCCCCCCCCCC)cc2)NC1=O` [LOT‐1, lipo‐oxytocin‐1], the “Percentage of maximum Ca^2+ mobilization” value at human OT receptors (setting [3]) is listed as 12.6 ± 1.8 ^a ^, ^c %.
Regarding `CCCCCCCCCCCCCCCC(=O)N[C@H]1CSSC[C@@H](C(=O)N2CCC[C@H]2C(=O)N[C@@H](CC(C)C)C(=O)NCC(N)=O)NC(=O)[C@H](CC(N)=O)NC(=O)[C@H](CCC(N)=O)NC(=O)[C@H]([C@@H](C)CC)NC(=O)[C@H](Cc2ccc(O)cc2)NC1=O` [LOT‐2, lipo‐oxytocin‐2], the “Percentage of maximum Ca^2+ mobilization” value on human OT receptors (10.0) was 45.5 ± 0.83 ^a ^, ^b %.
As for `CCCCCCCCCCCCCCCC(=O)Oc1ccc(C[C@@H]2NC(=O)[C@@H](N)CSSC[C@@H](C(=O)N3CCC[C@H]3C(=O)N[C@@H](CC(C)C)C(=O)NCC(N)=O)NC(=O)[C@H](CC(N)=O)NC(=O)[C@H](CCC(N)=O)NC(=O)[C@H]([C@@H](C)CC)NC2=O)cc1` [LOT‐3, lipo‐oxytocin‐3], the “Percentage of maximum Ca^2+ mobilization” value at human OT receptors (10.0) was 13.1 ± 1.8 ^a ^, ^c %.
Turning to `CC[C@H](C)[C@@H]1NC(=O)[C@H](Cc2ccc(O)cc2)NC(=O)[C@@H](N)CSSC[C@@H](C(=O)N2CCC[C@H]2C(=O)N[C@@H](CC(C)C)C(=O)NCC(N)=O)NC(=O)[C@H](CC(N)=O)NC(=O)[C@H](CCC(N)=O)NC1=O` [OT, Oxytocin], the “Percentage of maximum Ca^2+ mobilization” value on human OT receptors (setting [3]) amounted to 100%. Moreover, the “plasma level of OT” value in data set [1] (0.5 h) is reported as 695 ± 52 pg/mL; in data set [1] (24 h) it was 547 ± 39 pg/mL. In data set [2], the “level of OT in the CSF” value was 347 ± 38 pg/mL.

These data come from paper PMC5461640 (Pharmacology Research & Perspectives, 2017).
